The source of these data is ChEMBL document CHEMBL3124756, “Hepatitis C virus NS5A replication complex inhibitors. Part 6: Discovery of a novel and highly potent biarylimidazole chemotype with inhibitory activity toward genotypes 1a and 1b replicons” (J Med Chem, 2014).

By EC50 is commonly meant the concentration that produces a half-maximal response. The term CC50 denotes the concentration at which the toxic effect on the cells reaches its halfway point. A lower CC50 goes with greater toxicity to the cells. The term AUC denotes concentration integrated over time. Low values mean low exposure, high ones high exposure. By bioavailability is commonly meant the share of a dose that reaches the circulation, judged against a reference dose that is usually intravenous. The term efflux ratio denotes a quotient of directional permeabilities that is used to spot active efflux. What is called clearance is the rate of elimination divided by the concentration. Read a high clearance as efficient removal.

SMILES strings stand for the structures.

The test system of data set [1] is Salmonella typhimurium. In words: Mutagenic activity in Salmonella typhimurium TA 100 at 1 to 1000 ug/well after 48 hrs by Ames test in presence of rat liver S9 fraction. As to conditions: salmonella enterica subsp. enterica serovar typhimurium, s9, 48 h. The format is toxicity, organism-based. For orientation: The Ames test uses bacterial strains that need an amino acid and regain growth without it when mutated back.

Data set [2] concerns Salmonella typhimurium. Kind of data set: Mutagenic activity in Salmonella typhimurium TA 100 at 1 to 1000 ug/well after 48 hrs by Ames test. The format is toxicity, organism-based. Particulars: salmonella enterica subsp. enterica serovar typhimurium.
The subject of data set [3] is Hepatitis C virus. In words: Antiviral activity against Hepatitis C virus genotype 1b infected in human HuH7 cells after 72 hrs by FRET assay. Particulars: Huh-7, 72 h; call rule not given here. The format is functional, organism-based, Hepacivirus hominis.
For data set [4], the system named is Hepatitis C virus. In words: Antiviral activity against Hepatitis C virus genotype 1a infected in human HuH7 cells after 5 days by ELISA. The data set is classed as functional, organism-based, Hepacivirus hominis. As to conditions: subtype 1a, Huh-7, 120 h. In general terms: In an ELISA, binding on a coated surface is turned into a signal by an enzyme label.

For data set [5], the system named is Bovine viral diarrhea virus 1. Kind of data set: Antiviral activity against Bovine viral diarrhea virus infected in human HuH7 cells by luciferase reporter gene assay. The format is functional, organism-based. As to conditions: Bovine viral diarrhea virus isolates and strains, Huh-7. For orientation: A reporter such as luciferase makes a cellular process visible.

The nature of data set [6]: Drug metabolism in assay medium assessed as parent compound level at 5 uM after 48 hrs by LC/MS analysis. The data set is classed as physicochemical.
Data set [7] in a line: Cytotoxicity against human HuH7 cells infected with HCV genotype 1b after 72 hrs by Alamar blue assay. The format is cell-based, Huh-7.
In data set [8] the test system is Hepatitis C virus. Kind of data set: Antiviral activity against Hepatitis C virus genotype 1b expressing […] resistant-mutant infected in human HuH7 cells after 72 hrs by FRET assay. The format is functional, organism-based, Hepacivirus hominis. As to conditions: Huh-7, 72 h.
Data set [9] in a line: AUC (24 hrs) in rat at 5 mg/kg, po. The data set is classed as ADME, organism-based. The arrangement: time < 24 hr, dose 5 mg/kg, route oral. Particulars: plasma.
The nature of data set [10]: Oral bioavailability in rat at 5 mg/kg. The format is ADME, organism-based. As to conditions: in vivo.
Data set [11] can be described thus: Efflux ratio of permeability from basolateral to apical side over apical to basolateral side in human Caco2 cells. The format is ADME, cell-based. As to conditions: Caco-2.
Data set [12] is described as follows: Clearance in rat at 2 mg/kg, iv. The format is ADME, organism-based. The arrangement: dose 2 mg/kg, route intravenous. As to conditions: in vivo.
The nature of data set [13]: AUC (4 hrs) in rat at 5 mg/kg, po. The data set is classed as ADME, organism-based. Set-up: time < 4 hr, dose 5 mg/kg, route oral. Particulars: plasma.
For data set [14], the system named is Hepatitis C virus. Kind of data set: Antiviral activity against Hepatitis C virus genotype 1a infected in human HuH7 cells after 72 hrs by FRET assay. The format is functional, organism-based, Hepacivirus hominis. Particulars: subtype 1a, Huh-7, 72 h.
In data set [15] the test system is Hepatitis C virus. In words: Antiviral activity against Hepatitis C virus genotype 4a infected in human HuH7 cells by FRET assay. The format is functional, organism-based, Hepacivirus hominis. As to conditions: Huh-7.
Data set [16] is described as follows: Metabolic stability in rat microsomes assessed as compound remaining after 10 mins. The data set is classed as ADME, microsome. As to conditions: liver microsomes, read-out: Stability.
In data set [17] the test system is Hepatitis C virus. In words: Antiviral activity against Hepatitis C virus genotype 2a J6 infected in human HuH7 cells by FRET assay. The data set is classed as functional, organism-based, Hepacivirus hominis. Particulars: subtype 2a J6, Huh-7.
For data set [18], the system named is Hepatitis C virus. Kind of data set: Antiviral activity against Hepatitis C virus genotype 5a infected in human HuH7 cells by FRET assay. The format is functional, organism-based, Hepacivirus hominis. As to conditions: Huh-7.
In data set [19] the test system is Hepatitis C virus. Kind of data set: Antiviral activity against Hepatitis C virus genotype 3a YH infected in human HuH7 cells by FRET assay. The format is functional, organism-based, Hepacivirus hominis. Particulars: subtype 3a YH, Huh-7.
Data set [20] in a line: Metabolic stability in human liver microsomes assessed as compound remaining after 10 mins. As to conditions: read-out: Stability. The format is ADME.
The subject of data set [21] is Hepatitis C virus. In words: Antiviral activity against Hepatitis C virus genotype 3a infected in human HuH7 cells by FRET assay. Particulars: Huh-7. The format is functional, organism-based, Hepacivirus hominis.
Data set [22] is described as follows: Permeability of the compound at pH 7.4 by PAMPA. Particulars: read-out: permeability. The format is physicochemical.
Data set [23] is described as follows: Plasma concentration in rat at 5 mg/kg, po after 0.17 hrs. The format is ADME, organism-based. Set-up: dose 5 mg/kg, route oral.

Turning to `O=C(Nc1ccc(/C=C/c2ccc(NC(=O)[C@@H]3CCCN3C(=O)Cc3ccccc3)cc2)cc1)[C@@H]1CCCN1C(=O)Cc1ccccc1`, the Activity result in the data set with Salmonella typhimurium [1] and in the data set with Salmonella typhimurium [2] was “Non-toxic” each time.
Regarding `Nc1ccc(/C=C/c2ccc(NC(=O)[C@@H]3CCCN3C(=O)Cc3ccccc3)cc2)cc1`, the Activity result with Salmonella typhimurium [1] is reported as “Toxic”.
For the compound `O=C(Cc1ccccc1)N1CCC[C@H]1c1nc2cc(C#Cc3ccc4oc([C@@H]5CCCN5C(=O)Cc5ccccc5)nc4c3)ccc2o1`, the figures for the EC50 (with Hepatitis C virus [3]; with Hepatitis C virus [4]; in data set [5]) were more than 1000 nM, more than 1000 nM and 412 nM, respectively. The Drug metabolism result in data set [6] was “Active”. Further, in [7], the CC50 at 72 h is more than 10000 nM.
Take `COC(=O)N[C@@H](C(=O)N1CCC[C@H]1c1nc2cc(C#Cc3ccc4[nH]c([C@@H]5CCCN5C(=O)[C@H](NC(=O)OC)c5ccccc5)nc4c3)ccc2[nH]1)c1ccccc1`: the EC50 was more than 3330 nM in the data set on Hepatitis C virus [8], 0.055 nM in the data set with Hepatitis C virus [3], 108 nM in the data set with Hepatitis C virus [4] and more than 10000 nM in [5]. Further, the AUC at 24 h in [9] was found to be 0.539 µM·h. Also, in data set [10], the bioavailability was less than 1%. In addition, in data set [11], the efflux ratio was not below 7.2. Besides, the clearance in data set [12] stood at 1.1 mL/min/kg. The compound further registered an AUC at 4 h in data set [13] of 0.466 µM·h. Also, the CC50 at 72 h in [7] was more than 10000 nM.
Turning to `O=C(Cc1ccccc1)N1CCC[C@H]1c1ncc(-c2ccc(-c3ccc(-c4cnc([C@@H]5CCCN5C(=O)Cc5ccccc5)[nH]4)cc3)cc2)[nH]1`, the EC50 in the data set on Hepatitis C virus [14] is 283 nM; with Hepatitis C virus [3], 0.33 nM; in data set [5], 596 nM. In [7], this compound returned a CC50 at 72 h of more than 10000 nM.
Regarding `COC(=O)N[C@@H](C(=O)N1CCC[C@H]1c1ncc(-c2ccc(-c3ccc(-c4cnc([C@@H]5CCCN5C(=O)[C@H](NC(=O)OC)c5ccccc5)[nH]4)cc3)cc2)[nH]1)c1ccccc1`, the EC50 in the data set on Hepatitis C virus [15] was determined as 0.0057 nM; in the data set with Hepatitis C virus [8] it was 166 nM; in the data set on Hepatitis C virus [17], 0.023 nM; in the data set with Hepatitis C virus [3] it was 0.0067 nM; with Hepatitis C virus [18] it was 0.014 nM; in the data set on Hepatitis C virus [19], 4.4 nM. For the same compound, the figures for the EC50 (in the data set on Hepatitis C virus [4]; in [5]; in the data set on Hepatitis C virus [21]) were 0.028 nM, 1460 nM and 0.004 nM, respectively. Also, the remaining at 10 min in [16] and in data set [20] was 100% each time. This compound yielded a clearance in data set [12] of 11.1 mL/min/kg. This compound also returned a CC50 at 72 h in data set [7] of more than 10000 nM.
In the case of `CN(C)[C@@H](C(=O)N1CCC[C@H]1c1ncc(-c2ccc(-c3ccc(-c4cnc([C@@H]5CCCN5C(=O)[C@@H](c5ccccc5)N(C)C)[nH]4)cc3)cc2)[nH]1)c1ccccc1`, the EC50 in the data set with Hepatitis C virus [15] came to 0.013 nM; with Hepatitis C virus [8] it was 233 nM; with Hepatitis C virus [17] it was 0.032 nM; with Hepatitis C virus [3] it was 0.042 nM; in the data set on Hepatitis C virus [18], 0.032 nM; in the data set with Hepatitis C virus [19], 3.8 nM. For the same compound, the values for the EC50 (in the data set on Hepatitis C virus [4]; in [5]; in the data set with Hepatitis C virus [21]) were 0.037 nM, 2350 nM and 0.015 nM, respectively. The remaining at 10 min in data set [16] and in data set [20] was 100% each time. For the same compound, in [12], the clearance came to 17.4 mL/min/kg. The Papp in data set [22] turned out to be 0.7 ×10⁻⁶ cm/s. Further, the CC50 at 72 h in data set [7] stood at 5860 nM. Moreover, the concentration at 0.17 h in data set [23] came out at 20 nM.
Regarding `O=C(Cc1ccccc1)N1CCC[C@H]1c1nc2ccc(C#Cc3ccc4nc([C@@H]5CCCN5C(=O)Cc5ccccc5)oc4c3)cc2o1`, the EC50 with Hepatitis C virus [3] is more than 1000 nM; in the data set with Hepatitis C virus [4], more than 1000 nM; in [5] it was 7980 nM. Besides, the Drug metabolism result in data set [6] is recorded as “Active”. The compound also had a CC50 at 72 h in data set [7] of more than 10000 nM.
As for `CN(C)[C@@H](C(=O)N1CCC[C@H]1c1nc2ccc(C#Cc3ccc4nc([C@@H]5CCCN5C(=O)[C@@H](c5ccccc5)N(C)C)oc4c3)cc2o1)c1ccccc1`, the EC50 in the data set with Hepatitis C virus [8] is more than 1000 nM; in the data set with Hepatitis C virus [3] it was less than 4.6 nM; in the data set with Hepatitis C virus [4], more than 1000 nM; in [5], 390 nM. Besides, the CC50 at 72 h in [7] turned out to be 2720 nM.
As to `CN(C)[C@@H](C(=O)N1CCC[C@H]1C(=O)Nc1cccc(-c2ncc(-c3ccc4nc([C@@H]5CCCN5C(=O)[C@@H](c5ccccc5)N(C)C)[nH]c4c3)o2)c1)c1ccccc1`, the EC50 is more than 1000 nM in the data set on Hepatitis C virus [8], 0.14 nM in the data set with Hepatitis C virus [3], 3.5 nM in the data set on Hepatitis C virus [4] and 3090 nM in [5]. In addition, in data set [7], the midpoint of cytotoxicity, the CC50 at 72 h, lay at 8610 nM.
As to `COC(=O)N[C@@H](C(=O)N1CCC[C@H]1c1ncc(-c2ccc(-c3ccc(-c4cnc([C@@H]5CCCN5C(=O)OC(C)(C)C)[nH]4)cc3)cc2)[nH]1)c1ccccc1`, the EC50 in the data set with Hepatitis C virus [14] came out at 203 nM; with Hepatitis C virus [3], 0.011 nM; in data set [5], 110 nM. In data set [7], this compound gave a CC50 at 72 h of more than 10000 nM.
For the compound `CC(C)(C)OC(=O)N1CCC[C@H]1c1ncc(-c2ccc(-c3ccc(-c4cnc([C@@H]5CCCN5C(=O)OC(C)(C)C)[nH]4)cc3)cc2)[nH]1`, the EC50 in the data set with Hepatitis C virus [14] is 901 nM; in the data set on Hepatitis C virus [3], 102 nM; in data set [5] it was 2760 nM. In data set [7], this compound registered a CC50 at 72 h of 9630 nM.
